Experimental data: patent US6197963A, “Non-peptide peptidomimetics” (The Trustees of the University of Pennsylvania, priority 1998, dated 2001)
Like-named read-outs stand apart in the source and are kept apart here. Where a SMILES comes first, the peptide text is derived from it.

How the values were obtained:
[1] = test system: SRIF receptors on AtT-20 cells; assay: Binding at SRIF receptors of AtT-20 cells (Examples 104-110, Tables 1-3); parameters: species or system mouse
SRIF receptor [2] = assay: Displacement of 125I-CGP-23996 from SRIF receptor on AtT-20 cells (Example 13); format: binding, mouse; conditions: for IC50: displacement of 125I-CGP-23996, AtT-20 cells (Example 13), read-out: IC50
[3] = test system: SRIF receptors on AtT-20 cells; conditions: cited from earlier work; for affinity for the SRIF receptor: relative to O-linked isomers or other glycosides; for IC50: read-out: IC50 at somatostatin receptors of AtT-20 cells, Nicolaou and Hirschmann, ESCOM 1990
[4] = biological target: T1, human neurokinin-1 receptor (NK1R) (Homo sapiens, UniProt P25103); assay: Displacement of 125I-substance P from human NK1R expressed in COS cells (Example 12); format: binding; conditions: for IC50: 125I-substance P, COS cells (Example 12)
T1 construct: expressed in transfected cells; host or cells: COS cells
Experimental: The affinity of a variety of compounds for the substance P receptor was determined employing the following procedure.
To express the cloned human neurokinin-1 receptor (NK1R) transiently in COS, the cDNA for the human NK1R was cloned into the expression vector pCDM9 which was derived from pCDM8 (Invitrogen) by inserting the ampicillin resistance gene (nucleotide 1973 to 2964 from Bluescript SK+) into the Sac II site. Transfection of 20 μg of the plasmid DNA into 10 million COS cells was achieved by electroporation in 800 μl of the transfection buffer ([…], 1.2 mM MgCl2, 2.4 mM K2 HPO4, 0.6 mM KH2PO4, […], 10 mM HEPES pH 7.4) at 260 V and 950 μF using the IBI Genezapper (IBI, New Haven, Conn.). The cells were incubated in 10% fetal calf serum, 2 mM glutamine, 100 U/ml penicillin-streptomycin, and 90% DMEM media (Gibco, Grand Island, N.Y.) in 5% CO2 at 37° C. for three days before the binding assay.
The binding assay of human NK1R expressed in COS cells is based on the use of ^125 I-substance P (^125 I-SP, from DuPont, Boston, Mass.) as a radioactively labeled ligand which competes with unlabeled substance P or any other ligand for binding to the human NK1R. Monolayer cell cultures of COS were dissociated by the non-enzymatic solution (Specialty Media, Lavallette, N.J.) and resuspended in appropriate volume of the bind buffer (50 mM Tris pH 7.5, 5 mM MnCl2, 150 mM NaCl, 0.04 mg/ml bacitracin, 0.004 mg/ml leupeptin, 0.2 mg/ml BSA, 0.01 mM phosphoramidon) such that 200 μl of the cell suspension would give rise to about 10,000 cpm of specific ^125 I-SP binding (approximately 50,000 to 200,000 cells). In the binding assay, 200 μl of cells were added to a tube containing 20 μl of 1.5 to 2.5 nM of ^125 I-SP and 20 μl of unlabeled substance P or any other test compound. The tubes were incubated at 4° C. or at room temperature for 1 hour with gentle shaking. The bound radioactivity was separated from unbound radioactivity by GF/C filter (Brandel, Gaithersburg, Md.) which was pre-wetted with 0.1 polyethylenimine. The filter was washed with 3 ml of wash buffer (50 Tris pH 7.5, 5 mM MnCl2, 150 mM NaCl) three times and its radioactivity was determined by gamma counter.
A variety of compounds were tested according to the COS cell procedure. The concentration of compound required to inhibit the binding of substance P to the human neurokinin-1 receptor by 50% was measured.

hSSTR2 = hSSTR2 (Homo sapiens, UniProt P30874); assay: Binding at human SRIF receptor subtype hSSTR2; conditions: TABLE 3; read-out: hSSTR 2 Ki
hSSTR5 = hSSTR5 (Homo sapiens, UniProt P35346); assay: Binding at human SRIF receptor subtype hSSTR5; conditions: TABLE 3; read-out: hSSTR 5 Ki
NK-1 receptor [5] = biological target: T2, NK-1 receptor (Homo sapiens, UniProt P25103); conditions: cited from earlier work
β2-adrenergic receptor [6] = conditions: cited from earlier work
hSSTR1 = hSSTR1 (Homo sapiens, UniProt P30872); assay: Binding at human SRIF receptor subtype hSSTR1; conditions: TABLE 3; read-out: hSSTR 1 Ki
five hSSTRs = assay: Profile / average over the five human SRIF receptor subtypes; format: binding
hSSTR3 = hSSTR3 (Homo sapiens, UniProt P32745); assay: Binding at human SRIF receptor subtype hSSTR3; conditions: TABLE 3; read-out: hSSTR 3 Ki
hSSTR4 = hSSTR4 (Homo sapiens, UniProt P31391); assay: Binding at human SRIF receptor subtype hSSTR4; conditions: TABLE 3; read-out: hSSTR 4 Ki
[7] = test system: some sixty-five other receptors; assay: Binding at some sixty-five other receptors
β2-adrenergic receptor [8] = assay: Binding at the β2-adrenergic receptor; conditions: among some sixty-five receptors
[9] = test system: SRIF receptors present on AtT-20 cells; conditions: radioligand 125I-Tyr11-SRIF; read-out: IC50 against 125I-Tyr11-SRIF; cited from earlier work
SRIF receptor [10] = conditions: radioligand 125I-CGP-23996; read-out: IC50 when 125I-CGP-23996 was the radioligand; cited from earlier work
β-Adrenergic receptor = assay: Displacement of 125I-CYP from β-adrenergic receptor, AtT-20; format: binding, mouse
NK-1 receptor [11] = biological target: T2, NK-1 receptor; assay: Binding at the NK-1 receptor (Examples 109-110)
[12] = TABLE 2 (Example 106), read-out: AtT-20 cells IC50

T1 sequence (P25103 whole entry): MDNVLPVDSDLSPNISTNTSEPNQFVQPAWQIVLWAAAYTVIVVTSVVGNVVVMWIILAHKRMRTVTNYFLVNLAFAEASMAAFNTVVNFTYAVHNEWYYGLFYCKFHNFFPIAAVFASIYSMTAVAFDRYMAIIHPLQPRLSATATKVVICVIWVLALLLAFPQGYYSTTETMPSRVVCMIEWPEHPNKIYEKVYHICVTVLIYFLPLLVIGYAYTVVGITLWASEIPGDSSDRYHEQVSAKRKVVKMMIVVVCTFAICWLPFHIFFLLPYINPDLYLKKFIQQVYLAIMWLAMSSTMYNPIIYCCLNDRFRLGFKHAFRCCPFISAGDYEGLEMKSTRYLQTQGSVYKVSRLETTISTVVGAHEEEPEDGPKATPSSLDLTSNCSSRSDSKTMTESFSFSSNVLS
T2 sequence (P25103 whole entry): as above
Sequence of hSSTR3 (P32745 whole entry): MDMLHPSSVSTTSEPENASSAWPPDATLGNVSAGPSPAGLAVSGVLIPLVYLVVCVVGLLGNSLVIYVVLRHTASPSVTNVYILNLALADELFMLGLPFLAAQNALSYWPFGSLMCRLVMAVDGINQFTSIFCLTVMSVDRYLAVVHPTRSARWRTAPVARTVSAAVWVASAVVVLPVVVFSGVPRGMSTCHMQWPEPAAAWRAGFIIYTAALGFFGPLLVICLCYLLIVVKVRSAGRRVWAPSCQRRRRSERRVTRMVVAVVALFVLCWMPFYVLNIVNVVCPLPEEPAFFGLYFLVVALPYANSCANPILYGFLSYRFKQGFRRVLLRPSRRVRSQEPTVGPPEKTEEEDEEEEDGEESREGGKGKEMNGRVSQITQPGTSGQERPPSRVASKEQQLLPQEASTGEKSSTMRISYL
Sequence of hSSTR4 (P31391 whole entry): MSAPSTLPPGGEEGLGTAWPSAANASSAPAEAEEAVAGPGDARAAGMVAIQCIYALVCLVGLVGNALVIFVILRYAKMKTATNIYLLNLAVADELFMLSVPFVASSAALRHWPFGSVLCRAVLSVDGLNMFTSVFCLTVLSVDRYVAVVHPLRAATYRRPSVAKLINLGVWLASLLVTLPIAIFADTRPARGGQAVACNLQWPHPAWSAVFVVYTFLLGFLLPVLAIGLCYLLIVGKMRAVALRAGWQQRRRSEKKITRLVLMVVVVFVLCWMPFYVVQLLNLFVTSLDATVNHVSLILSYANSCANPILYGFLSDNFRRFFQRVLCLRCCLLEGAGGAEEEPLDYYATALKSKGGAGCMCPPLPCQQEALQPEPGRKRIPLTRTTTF
Sequence of hSSTR1 (P30872 whole entry): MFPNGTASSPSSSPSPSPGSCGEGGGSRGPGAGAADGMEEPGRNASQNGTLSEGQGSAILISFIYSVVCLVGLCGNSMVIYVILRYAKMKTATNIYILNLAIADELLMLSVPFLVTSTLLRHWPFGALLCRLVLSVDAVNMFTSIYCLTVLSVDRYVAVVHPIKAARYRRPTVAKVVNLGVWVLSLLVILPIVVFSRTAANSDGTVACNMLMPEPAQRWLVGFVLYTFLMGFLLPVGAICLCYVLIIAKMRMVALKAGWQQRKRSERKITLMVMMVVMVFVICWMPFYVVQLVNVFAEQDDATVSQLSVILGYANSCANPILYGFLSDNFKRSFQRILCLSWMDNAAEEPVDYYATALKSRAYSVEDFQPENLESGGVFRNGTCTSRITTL
Sequence of hSSTR2 (P30874 whole entry): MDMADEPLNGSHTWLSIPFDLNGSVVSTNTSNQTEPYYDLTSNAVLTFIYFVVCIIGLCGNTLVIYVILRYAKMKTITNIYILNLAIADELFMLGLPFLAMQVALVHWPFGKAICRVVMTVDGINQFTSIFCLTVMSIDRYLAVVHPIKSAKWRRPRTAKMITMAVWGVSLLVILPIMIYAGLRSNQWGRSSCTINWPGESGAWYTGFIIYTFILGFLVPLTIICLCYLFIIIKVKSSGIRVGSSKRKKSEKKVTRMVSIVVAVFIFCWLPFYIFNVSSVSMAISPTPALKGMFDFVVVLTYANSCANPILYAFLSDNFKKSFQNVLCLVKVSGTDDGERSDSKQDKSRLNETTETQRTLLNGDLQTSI
Sequence of hSSTR5 (P35346 whole entry): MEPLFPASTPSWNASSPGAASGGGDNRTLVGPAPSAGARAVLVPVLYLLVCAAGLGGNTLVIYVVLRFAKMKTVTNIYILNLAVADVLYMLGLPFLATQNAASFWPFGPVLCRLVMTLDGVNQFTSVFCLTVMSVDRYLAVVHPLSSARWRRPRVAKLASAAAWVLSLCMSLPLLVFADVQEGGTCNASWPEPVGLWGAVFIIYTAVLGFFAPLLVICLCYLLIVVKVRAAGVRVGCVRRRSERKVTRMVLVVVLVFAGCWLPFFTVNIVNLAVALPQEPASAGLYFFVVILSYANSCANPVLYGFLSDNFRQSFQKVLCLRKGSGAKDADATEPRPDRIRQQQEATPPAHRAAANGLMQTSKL

Q: For `OCCCCCNC[C@H]1O[C@@H](OCCc2c[nH]c3ccccc23)[C@H](OCc2ccccc2)C[C@@H]1OCc1ccccc1` [III-5c, 2-(1H-Indol-3-yl)ethyl 2,4-Di-O-benzyl-3,6-dideoxy-6-amino-6-N-(5-hydroxypentyl)-β-D-glucopyranoside], which IC50 [1, 12] is on record?
A: 5100 nM

Q: What about the IC50 (SRIF receptor [2]) of the same compound?
A: 1300 nM

Q: And the “affinity for the SRIF receptor” value [3]?
A: about the same as those of III-4a and III-5b

Q: And the IC50 [4]?
A: 180 nM

Q: Which results are given for `NCCCCCOC[C@H]1O[C@@H](OCCc2c[nH]c3ccccc23)[C@H](OCc2ccccc2)C[C@@H]1OCc1ccccc1` [III-5a, 2-(1H-Indol-3-yl)ethyl 2,4-Di-O-benzyl-3-deoxy-6-O-(5-aminopentyl)-β-D-glucopyranoside]?
A: IC50 ([1]; TABLE 1 (Example 105), read-out: AtT-20 cells 50 IC): 8400 nM; IC50 ([1]; TABLE 3 (Example 108), read-out: AtT-20 IC50): 8400 nM; Ki (hSSTR2): 3100 nM; Ki (hSSTR5): 5100 nM; binding / antagonism at the NK-1 receptor (NK-1 receptor [5]): potent antagonist ligands; binding / antagonism at the β2-adrenergic receptor (β2-adrenergic receptor [6]): bind the β2 -adrenergic receptor as antagonists; IC50 [3]: ~10000 nM; Ki (hSSTR1): 4100 nM; hSSTR subtype affinity profile (five hSSTRs): high affinities for hSSTR2 and hSSTR4 and a low affinity for SSTR1; Ki (hSSTR3): 3300 nM; Ki (hSSTR4): 1700 nM

Q: For `CC(=O)NCCCCCOC[C@H]1O[C@@H](OCCc2c[nH]c3ccccc23)[C@H](OCc2ccccc2)[C@@H](OCc2ccccc2)[C@@H]1OCc1ccccc1` [III-4d], which “activity / affinity at SRIF receptors of AtT-20 cells” value [1] is on record?
A: inactive

Q: And the “binding of the SRIF receptors” value ([1]; among some sixty-five receptors)?
A: did not bind

Q: What about the “binding of some sixty-five other receptors” value [7] of the same compound?
A: did not bind some sixty-five other receptors

Q: And the “binding of the β2-adrenergic receptors” value (β2-adrenergic receptor [8])?
A: did not bind

Q: What about the IC50 [4] of the same compound?
A: 56 nM

Q: With somatostatin [SRIF, reference compound] as the compound, how does the IC50 (SRIF receptor [2]) read?
A: 9.3 nM

Q: What about the “binding / antagonism at the NK-1 receptor” value (NK-1 receptor [5]) of the same compound?
A: do not bind

Q: And the IC50 [9]?
A: 0.83 nM

Q: What about the “binding / antagonism at the β2-adrenergic receptor” value (β2-adrenergic receptor [6]) of the same compound?
A: do not bind

Q: What about the IC50 [3] of the same compound?
A: ~9.3 nM

Q: And the IC50 (SRIF receptor [10])?
A: 9.3 nM

Q: What about the “hSSTR subtype affinity profile” value (five hSSTRs) of the same compound?
A: decreases in the order SSTR2>>SSTR1>SSTR3>SSTR4 and SSTR5

Q: Which IC50 (SRIF receptor [2]) does the source give for `C[C@@H](O)[C@@H]1NC(=O)[C@H](CCCCN)NC(=O)[C@@H](Cc2c[nH]c3ccccc23)NC(=O)[C@H](Cc2ccccc2)NC(=O)[C@@H]2CCCN2C(=O)[C@H](Cc2ccccc2)NC1=O` [L-363,301, reference compound] (HELM PEPTIDE1{P.F.[dW].K.T.F}$PEPTIDE1,PEPTIDE1,1:R1-6:R2$$$V2.0) here?
A: 18.7 nM

Q: And the “binding / antagonism at the NK-1 receptor” value (NK-1 receptor [5])?
A: do not bind

Q: What about the “binding / antagonism at the β2-adrenergic receptor” value (β2-adrenergic receptor [6]) of the same compound?
A: do not bind

Q: For `CO[C@@H]1O[C@H](COCCCCCN)[C@@H](OCc2ccccc2)[C@H](OCc2ccccc2)[C@H]1OCc1ccccc1` [Methyl 6-O-(5-aminopentyl)-2,3,4-tri-O-benzyl-β-D-glucopyranoside], which “binding by the SRIF receptor” value (SRIF receptor [2]) is on record?
A: is bound by the substance P and SRIF receptors

Q: And the IC50 (SRIF receptor [2])?
A: 40000 nM

Q: And the “binding of the β-adrenergic receptor” value (β-Adrenergic receptor)?
A: does not bind the β-adrenergic receptor

Q: What about the Inhibition (β-Adrenergic receptor; 125I-CYP (0.1 nM), AtT-20) of the same compound?
A: 0%

Q: And the “binding by the substance P receptor” value [4]?
A: is bound by the substance P and SRIF receptors

Q: And the IC50 [4]?
A: 400 nM

Q: With `NCCCCCOC[C@H]1O[C@@H](OCCc2c[nH]c3ccccc23)[C@H](OCc2ccccc2)[C@@H](OCc2ccccc2)[C@@H]1OCc1ccccc1` [III-4a, 2-(1H-Indol-3-yl)ethyl 2,3,4-Tri-O-benzyl-6-O-(5-aminopentyl)-β-D-glucopyranoside] as the compound, how does the “binding / antagonism at the NK-1 receptor” value (NK-1 receptor [5]) read?
A: potent antagonist ligands

Q: And the “binding / antagonism at the β2-adrenergic receptor” value (β2-adrenergic receptor [6])?
A: bind the β2 -adrenergic receptor as antagonists

Q: And the IC50 [3]?
A: ~15000 nM

Q: What about the “hSSTR subtype affinity profile” value (five hSSTRs) of the same compound?
A: high affinities for hSSTR2 and hSSTR4 and a low affinity for SSTR1

Q: And the Ki (hSSTR3)?
A: 2800 nM

Q: And the Ki (hSSTR4)?
A: 1100 nM

Q: And the “binding of the NK-1 receptor” value (NK-1 receptor [11])?
A: did not bind

Q: What about the IC50 (NK-1 receptor [11]; read-out: affinity at the NK-1 receptor) of the same compound?
A: 150 nM

Q: What does the source list for `OCCCCCNC[C@H]1O[C@@H](OCCc2c[nH]c3ccccc23)[C@H](OCc2ccccc2)[C@@H](OCc2ccccc2)[C@@H]1OCc1ccccc1` [III-4e, 2-(1H-Indol-3-yl)ethyl 2,3,4-Tri-O-benzyl-6-amino-6-deoxy-6-N-(5-hydroxypentyl)-β-D-glucopyranoside]?
A: IC50 [1, 12]: 14000 nM; IC50 (SRIF receptor [2]): 9500 nM; affinity for the SRIF receptor [3]: about the same as those of III-4a and III-5b; IC50 [4]: 120 nM
